We go through 6 compounds from patent EP1272220B2, “FORMULATION FOR THE PREVENTION OF CARDIOVASCULAR DISEASE” (Wald, Nicholas John, priority 2000, dated 2001).

Data set [1] is described as follows: Prevalence of adverse effects in randomised placebo controlled trials (treated minus control). To be noted: preferred daily dose: Hydrochlorothiazide 12.5 mg, Atenolol 25 mg, Enalapril 5 mg, Aspirin 75 mg; for Prevalence of any adverse effect in randomised trials (treated minus control) / Prevalence of serious adverse effects (those that warranted withdrawal from randomised trial) (treated minus control): Atorvastatin 10 mg, Folic acid 0.8 mg. The format is in vivo, persons. The source says:
The dose of each medication has been chosen to maximise the ratio of benefit to hazard. It is recognised that some persons taking a combination of six drugs would develop adverse effects that were unacceptable. The adverse effects attributable to each of the component medications would be made clear to persons taking the combined formulation and alternative formulations omitting one or more of the component ingredients, with orwithout a substitute ingredient, would be available for persons unable to tolerate one component. […]

Data set [2] is described as follows: Expected reduction in risk of ischaemic heart disease and stroke, from analyses of cohort studies and randomised controlled trials. Format: in vivo, persons. An excerpt:
This combined estimate is based on the fact that the effects on the four different risk factors are unrelated and so the expected effects of changing each one will be independent of each other. This expectation is supported by two classes of evidence. […] For example the ratio of the risk of a disease event in persons with high blood pressure and the risk in persons with low blood pressure is similar, irrespective of the values of serum cholesterol and other risk factors. Second, some randomised clinical trials have used combinations of two of the drugs (for example beta blockers and aspirin) in patients with ischaemic heart disease and have shown that the effects are independent (that is, the relative risk in patients who took two drugs (compared with the risk in those who took none) was similar to the relative risk in persons taking one of the drugs multiplied by the relative risk in persons taking the other drug). Accordingly, the effect of the different drugs in combination in Table 3 has been calculated by multiplying the effects of each as shown in footnotes h and j. Table 3 - The constituent drugs in the proposed combined formulation, the cardiovascular risk factors that each alter, the amount by which each factor would be changed, and the resulting expected reduction in risk of ischaemic heart disease and stroke. [table]

Data set [3] in a line: Analysis of blood pressure reduction according to dose in 187 randomised placebo controlled trials of thiazide diuretics, beta-blockers and ACE inhibitors. The format is in vivo, persons. To be noted: Hydrochlorothiazide 12.5 mg + Atenolol 25 mg + Enalapril 5 mg daily, combined effect, half standard dose. An excerpt:
For drugs used to lower blood pressure, the dose of an active principal is below the lower therapeutic dosage for the indication of the active principal. As used herein, the term "therapeutic dosage" is intended to referto the commonly used dose in clinical practice for the treatment of high levels of the risk factor or for the treatment of cardiovascular disease by the separate active principal. The most preferred doses for blood pressure lowering agents are half of the doses at the lower end of the therapeutic range recommended in the British National Formulary of March 2000. This is in order to maximise the therapeutic benefit of the combination of agents, while minimising the risks of adverse effects of the individual agents. […] Most preferably, the dose of a blood pressure lowering agent is about half the recommended dose (or, where a range of doses is given, half of the recommended dose at the lower end of the recommended therapeutic range) for the blood pressure lowering agent.
The corresponding reductions in incidence of ischaemic heart disease and stroke are those to be expected from the blood pressure reductions, from published analyses of cohort studies and randomised controlled trials of blood pressure and ischaemic heart disease and stroke (references 1, 5).

For data set [4] the following is noted: randomised trials; platelet function not measured; cited from earlier work.
The conditions of data set [5]: Atorvastatin 10 mg daily; published placebo controlled trials (reference 200); cited from earlier work.
The conditions of data set [6]: Folic acid 0.8 mg daily; cited from earlier work.
The mark [7] stands for this setting: Hydrochlorothiazide 12.5 mg + Atenolol 25 mg + Enalapril 5 mg daily combined, expected from blood pressure reduction of 12 mmHg diastolic.
Where [8] appears, read: single drug at preferred daily dose: Atorvastatin 10 mg, Aspirin 75 mg (14 trials of 50-100 mg daily), Folic acid 0.8 mg.

Marks after values point to notes of the source that are not given here.

Take `NS(=O)(=O)c1cc2c(cc1Cl)NCNS2(=O)=O` [Hydrochlorothiazide]: in data set [1], the Commonest adverse effects entry was “dizziness, impotence, nausea”; the “Prevalence of any adverse effect in randomised trials (treated minus control)” value turned out to be 1.4%^a; the “Prevalence of serious adverse effects (those that warranted withdrawal from randomised trial) (treated minus control)” value came to 0.1%^a. Also, in data set [2] (setting [7]), the “Expected reduction in risk of: ischaemic heart disease” value came out at 43%^b and the “Expected reduction in risk of: stroke” value came to 63%^b. Also, in data set [3], the “Associated physiological variable (reduction produced by drug): Blood pressure, diastolic” value is reported as “(12 mmHg diastolic)^a”.

In the case of `CC(=O)Oc1ccccc1C(=O)O` [Aspirin], in data set [1], the Commonest adverse effects entry was “bleeding, indigestion”; the “Prevalence of any adverse effect in randomised trials (treated minus control)” value is 1.8%^b; the “Prevalence of serious adverse effects (those that warranted withdrawal from randomised trial) (treated minus control)” value is on record as 0.7%^b (mainly rectal or urinary bleeding). Further, in data set [2] (setting [8]), the “Expected reduction in risk of: ischaemic heart disease” value was 38%^e and the “Expected reduction in risk of: stroke” value is 15%^e. Besides, in data set [4], the “incidence of heart attacks and stroke” value was “reduces the incidence of heart attacks and stroke in both high risk and low risk persons”.

With `CCOC(=O)[C@H](CCc1ccccc1)N[C@@H](C)C(=O)N1CCC[C@H]1C(=O)O` [Enalapril], in data set [1], the Commonest adverse effects entry is reported as “cough”, the “Prevalence of any adverse effect in randomised trials (treated minus control)” value came out at 2.1%^a and the “Prevalence of serious adverse effects (those that warranted withdrawal from randomised trial) (treated minus control)” value turned out to be 0.2%^a. In addition, in data set [2] (setting [7]), the “Expected reduction in risk of: ischaemic heart disease” value was determined as 43%^b and the “Expected reduction in risk of: stroke” value is 63%^b. Moreover, the “Associated physiological variable (reduction produced by drug): Blood pressure, diastolic” value in data set [3] is given as “(12 mmHg diastolic)^a”.

For `CC(C)NCC(O)COc1ccc(CC(N)=O)cc1` (stereo not drawn) [Atenolol], in data set [1], the Commonest adverse effects entry was “cold extremities, fatigue, dizziness”; the “Prevalence of any adverse effect in randomised trials (treated minus control)” value is on record as 5.6%^a; the “Prevalence of serious adverse effects (those that warranted withdrawal from randomised trial) (treated minus control)” value is 0.9%^a. In data set [2] (setting [7]), the “Expected reduction in risk of: ischaemic heart disease” value was 43%^b and the “Expected reduction in risk of: stroke” value was found to be 63%^b. Further, in data set [3], the “Associated physiological variable (reduction produced by drug): Blood pressure, diastolic” value is “(12 mmHg diastolic)^a”.

As for `CC(C)c1c(C(=O)Nc2ccccc2)c(-c2ccccc2)c(-c2ccc(F)cc2)n1CC[C@@H](O)C[C@@H](O)CC(=O)O` [Atorvastatin], in data set [1], the “Prevalence of any adverse effect in randomised trials (treated minus control)” value was determined as 0.1% and the “Prevalence of serious adverse effects (those that warranted withdrawal from randomised trial) (treated minus control)” value was less than 0.1%. In data set [2] (setting [8]), the “Expected reduction in risk of: ischaemic heart disease” value was found to be 61 %^d and the “Expected reduction in risk of: stroke” value was determined as 50%^d. Also, the “Associated physiological variable (reduction produced by drug): Serum cholesterol” value in data set [5] is reported as “Serum cholesterol (1.8 mmol/I)°”.

As to `Nc1nc2ncc(CNc3ccc(C(=O)N[C@@H](CCC(=O)O)C(=O)O)cc3)nc2c(=O)[nH]1` [Folic acid], in data set [1], the “Prevalence of any adverse effect in randomised trials (treated minus control)” value is reported as less than 0.1% and the “Prevalence of serious adverse effects (those that warranted withdrawal from randomised trial) (treated minus control)” value is reported as less than 0.1%. Moreover, the “Expected reduction in risk of: ischaemic heart disease” value in data set [2] (setting [8]) worked out at 15%^g. In addition, in data set [6], the “Associated physiological variable (reduction produced by drug): Plasma/serum homocysteine” value is “Plasma/serum homocysteine (3 µmol/I)^f”.
